These results are taken from BindingDB's records for patent US10213407 (The Procter & Gamble, 2019).

Usually IC50 stands for the midpoint of a concentration-inhibition curve. Read a high IC50 as a need for much substance.

This assay deals with T1, Carnitine monooxygenase oxygenase/reductase subunit (Escherichia coli (strain K12), UniProt P0ABR7+P76254).
T1 sequence (P0ABR7 whole entry): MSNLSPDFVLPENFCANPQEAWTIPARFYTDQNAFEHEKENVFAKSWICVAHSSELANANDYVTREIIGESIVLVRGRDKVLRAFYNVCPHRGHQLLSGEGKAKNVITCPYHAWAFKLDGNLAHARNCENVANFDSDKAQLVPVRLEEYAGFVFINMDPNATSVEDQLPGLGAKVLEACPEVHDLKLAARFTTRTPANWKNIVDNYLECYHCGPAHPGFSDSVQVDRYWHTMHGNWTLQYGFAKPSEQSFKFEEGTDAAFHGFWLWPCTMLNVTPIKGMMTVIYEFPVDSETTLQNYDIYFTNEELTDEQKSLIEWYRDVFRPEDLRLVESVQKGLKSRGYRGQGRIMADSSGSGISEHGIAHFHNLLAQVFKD
T1 sequence (P76254 whole entry): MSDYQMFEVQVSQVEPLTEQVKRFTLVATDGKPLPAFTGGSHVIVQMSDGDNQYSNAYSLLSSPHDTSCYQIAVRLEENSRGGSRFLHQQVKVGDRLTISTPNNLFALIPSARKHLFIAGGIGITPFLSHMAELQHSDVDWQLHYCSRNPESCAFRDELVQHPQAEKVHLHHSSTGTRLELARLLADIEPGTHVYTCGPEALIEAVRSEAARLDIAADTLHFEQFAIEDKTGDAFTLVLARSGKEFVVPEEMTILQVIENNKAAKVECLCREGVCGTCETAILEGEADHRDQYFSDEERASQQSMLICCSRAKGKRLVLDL
As to the kind of experiment: BCA Protein Assay. The text has this:
Escherichia coli BL21*DE3 pET30a-Ec yeaWX #1 (Ec YeaWX) strain was generated as described below. The contiguous Escherichia coli coding sequence yeaW (equivalent to uniprot ID P0ABR7.1 (YeaW) (SEQ ID NO: 2)) and yeaX (equivalent to uniprot ID P76254.1 (YeaX) (SEQ ID NO: 3)) were PCR amplified from Escherichia coli strain K-12 substr. BW25113 genomic DNA. PCR primers (YeaW_Nde I_fwd2-SEQ ID NO: 4; YeaX_rev2-SEQ ID NO: 5) were designed to create a 5′ NdeI restriction site including the ATG start codon of yeaW and create a PstI restriction site just 3′ of the yeaX TAG stop codon.The bacteria were grown aerobically in 50 mL LB broth (Difco #244620; 10 g/L Tryptone, 5 g/L yeast extract, 10 g/L NaCl, 50 μg/mL kanamycin), in a 500 mL Erlenmeyer flask. The cultures were inoculated from glycerol stock of BL21*DE3 pET30a-Ec yeaWX #1 strain. Strains were cultured all day at 37° C. with 250 rpm shaking. Two 300 mL Minimal M9 Medium (6 g/L Na2HPO4, 3 g/L KH2PO4, 0.5 g/L NaCl, 1 g/L NH4Cl, 0.1 mM CaCl2, 1 mM MgSO4, 0.2% Dextrose, 1 mg/L Thiamine, 50 μg/mL kanamycin), in 1 L Erlenmeyer flasks, were inoculated with 5 mL of the LB broth day culture and cultured overnight at 37° C. with 250 rpm shaking. The overnight cultures were used to inoculate twelve 1 L cultures of Minimal M9 media in 2.8 L fluted Erlenmeyer flasks to an OD 600 nm of 0.05 (typically approximately 28 mLs), which were grown at 37° C. with 250 rpm shaking until an OD600 of approximately 0.4 was reached. Expression of YeaWX was induced with 1 mM IPTG and the induced cultures were further grown overnight at 37° C. with 250 rpm shaking. The biomass was pelleted by centrifugation at 6000×g for 12 minutes at 4° C. The cell pellet was suspended in 240 mL of ice-cold 1× Phosphate Buffered Saline (Ca2+ and Mg2+ free). […] Glycerol was added to the centrifuged lysate supernatant at a final concentration of 15% A protein concentration of the centrifuged lysate supernatant was determined by a BCA Protein Assay Kit (Pierce #23225), typically in the 2.5 to 4.5 mg/ml range. […]
For the compound `C[N+](C)(CC#N)CCN=C=S` [US10213407, ID 8], 210 µM corresponded to half-maximal inhibition (IC50).
The compound `CCOC(=O)C[N+](C)(C)CCN=C=S` [US10213407, ID 4] yielded an IC50 of 300 µM.
Regarding `CCOC(=O)C[N+](CC)(CC)CCCN=C=S` [US10213407, ID 3], it took 220 µM to reach half-maximal inhibition (IC50).
